Laboratory results taken from patent US11980613B2, “Methods for reversing HIV latency using BAF complex modulating compounds” (priority 2018, dated 2024).

What was measured:
[1] = test system: HIV-1 5′-LTR (Nuc-1); assay: FAIRE assay in J-Lat 11.1; format: cell-based; conditions: overnight compound treatment
Protocol: (§1) 24. Activation markers, apoptosis and viability of primary CD4+ T cells: Activation markers, namely CD25 and CD69 were analyzed as described previously^55. Briefly, CD4+ T cells were treated with DMSO, compound, or PMA/Ionomycin for 24 and 72 hours. Cells were collected, washed with PBS and stained for 30 min at 4° C. with α-CD25-APC (17-0259-42, eBioscience) and α-CD69-FITC (11-0699-42, eBioscience). Following two washes with PBS, cells were fixed with 1% HCHO at 4° C. and analyzed by flow cytometry with Becton Dickinson Fortessa instrument. To determine percent of apoptotic cells after treatment cells were stimulated for 24 and 72 hours and stained with anti-AnnexinV-PE (BD Biosciences, cat. 556454) in the presence of 2.5 mM CaCl2 for 20 min at 4° C. Cells were analyzed by Becton Dickinson Fortessa flow cytometer. Data represents the average of six experiments performed on cells from different healthy donors. Viability of ex-vivo infected primary CD4+ cells was determined by flow cytometry on the basis of forward versus side scatter analysis. 25. FAIRE: FAIRE experiment was performed as described, with minor modifications^55. Eighteen hours prior to analysis, J-Lat 11.1 cells were treated with BAFi's where indicated. Cells were fixed for 10 min by adding formaldehyde to a final concentration of 1% at room temperature. Twenty million cells were used per FAIRE experiment. […]

[2] = test system: BAF target genes c-MYC and p21; assay: Biomarkers: mRNA of BAF target genes p21 and c-MYC in CD4+ T cells; format: cell-based, human
Protocol: [drawing 27] i. BRD-K25923209: To Macrocycle 2141-039b (0.804 g, 1.550 mmol) dissolved in MeOH (Volume: 15.50 ml) was added tin(II) chloride dihydrate (3.50 g, 15.50 mmol). The reaction mixture was stirred at 40° C. for 24 h until LC/MS indicated complete consumption of starting material (nitro) and presence of desired mass. Upon completion, the reaction mixture was concentrated and the resulting residue was dissolved in EtOAc and washed with 2 M aq. KOH (2×). The combined aqueous layers were washed with EtOAc (4×). The resulting organic layers were washed with brine, saturated aqueous NaHCO3, water, and brine, dried over MgSO4, filtered, and concentrated. The crude aniline was sufficiently pure to use in the capping step and therefore was used without purification. Note: The workup as described above produces a lot of precipitate/emulsion. This can be overcome by extensive washing or alternately, the reaction can be quenched with 1 volume of 1 M NaOH, stirred with celite for 10 minutes, and filtered prior to workup to yield 33.8% (17.2 mg) over 3 steps. (M+H)^+ calculated=489.286 (M+H)^+ average (3 ESI replicates)=489.2866±0.92. j. BRD-K80443127: A screwtop vial was charged with aniline (BRD-K25923209) (43.3 mg, 0.089 mmol) and CH2Cl2 (Volume: 886 μl, Density: 1.325 g/ml). Isopropyl chloroformate (115 μl, 0.115 mmol) and DIEA (46.4 μl, 0.266 mmol) were added dropwise and reaction stirred under ambient conditions for 1 h. […] The reaction mixture was loaded directly onto SiO2 and purified via ISCO (1-12% MeOH in CH2Cl2, 20 min); Collected fractions 40-44 to afford the product as a yellow oil in 33.8% (17.2 mg) yield. (M+H)^+ calculated=575.3228 (M+H)^+ average (3 ESI replicates)=575.3235±1.32. k. BRD-K04244835: A 2.5 mL microwave vial was charged with aniline (BRD-K25923209) (40 mg, 0.082 mmol) and EtOH (Volume: 819 μl, Density: 0.81 g/ml). Squaramide (CRE-III-001) (20.75 mg, 0.098 mmol), DIEA (42.8 μl, 0.246 mmol), and DMAP (2.000 mg, 0.016 mmol) were added in sequence and the vial was sealed. […] (M+H)^+ calculated=654.365 (M+H)^+ average (3 ESI replicates)=654.3661±1.64. […]

[3] = test system: human primary CD4+ T cells; assay: T cell activation markers CD25 and CD69; format: cell-based; conditions: 24 and 72 hours; two healthy donors
Protocol: as §1

`CO[C@H]1CN(C)C(=O)c2cc(NC(=O)OC(C)C)ccc2OC[C@H](C)N(Cc2ccc(-c3ccccn3)cc2)C[C@@H]1C` [BRD-K80443127] was tested, and the “chromatin accessibility at the Nuc-1 position of the 5′ LTR” value [1] was “increased chromatin accessibility”, the “differential expression of c-MYC and p21” value ([2]; CD4+ T cells from 3 healthy donors, 3 μM, 16 hours) was “consistent with BAF inhibition” and the C-MYC transcript levels ([2]; three patients, 10 μM) was “significant decrease”. The p21 transcript levels ([2]; three patients, 10 μM) was “significant decrease” and the “CD25 and CD69 expression” value [3] was “no effect”.
